Test system: HeLa cells
Experiment: Cell membrane permeability assay, evaluation by FACS
Assay type: cell-based
Details: FITC-labeled peptide 0.1 μM, 37° C.
Method: HeLa cells are grown in DMEM containing 10% fetal bovine serum and penicillin/streptomycin, treated with trypsin, washed twice with medium using a centrifuge, and seeded into multi-well plates for overnight incubation. FITC-labeled peptides are added to the cells at 37° C. and the cells are incubated at 37° C. The cells are washed twice with medium and twice with PBS, and treated with trypsin at 37° C. HeLa cells are collected and centrifuged, washed twice with medium and twice with PBS, and PBS containing propidium iodide is added to the cell. The cell membrane permeability of the peptides is quantitatively analyzed by FACS.
(Evaluation of Cell Membrane Permeability by FACS)

Mean: FITC-A: 3192
Substance: Ac—W I F [K] H R—NH2 [WT]
